Among the test systems are HT-29; RPMI-8226; SW-620; SR; HCT-15; SK-MEL-28; NCI-H522; U-251; HCT-116; K562; LOX IMVI; A549; SNB-19; ACHN; 786-0; DU-145.
Experiment in all cases: NCI tumour cell line growth inhibition, 48 h

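Following 48 hours of exposure in 96-well plates, responses at five concentrations were used to interpolate endpoints linearly. At the GI50, growth is halved.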 Calls of active or inactive are those of the source. Rule as the data show it: active = GI50 up to about 1.1 µM and inactive = higher.

Regarding `CC1(C)C(=NN=C(N)N)C(C)(C)C1=NN=C(N)N`, the GI50 in the experiment on HT-29 was > 100 µM (inactive); with RPMI-8226, > 100 µM (inactive); with SW-620, > 100 µM (inactive); in the experiment on SR it was > 100 µM (inactive); in the experiment with HCT-15, over 100 µM; in the experiment with SK-MEL-28, > 100 µM (inactive). Further, the GI50 in the experiment on NCI-H522, in the experiment on U-251, in the experiment with HCT-116, in the experiment with K562, in the experiment with LOX IMVI and in the experiment with A549 was > 100 µM (inactive) throughout. In addition, the GI50 with SNB-19, in the experiment on ACHN and in the experiment on 786-0 was > 100 µM (inactive) in each case.

For the molecule `CN1C2C=C(c3ccccc3)CC1CC2` (configuration not stated), the GI50 in the experiment with HT-29 is > 100 µM (inactive); in the experiment on RPMI-8226, > 100 µM (inactive); in the experiment with SW-620, > 100 µM (inactive); in the experiment on SR, > 100 µM (inactive); in the experiment on HCT-15 it was over 100 µM; in the experiment with SK-MEL-28, > 100 µM (inactive). Besides, the GI50 with NCI-H522, in the experiment on U-251, with HCT-116, in the experiment on K562, with LOX IMVI and in the experiment with A549 was > 100 µM (inactive) in each case. Moreover, the GI50 in the experiment on SNB-19, with ACHN and in the experiment on 786-0 was > 100 µM (inactive) throughout.

Consider `CC(=O)c1cccc(NCn2nnc3ccccc32)c1`, for which the GI50 in the experiment with HT-29 is > 100 µM (inactive); with RPMI-8226 it was 96.8 µM (inactive); in the experiment with SW-620, > 100 µM (inactive); in the experiment with SR it was 79.4 µM (inactive); with HCT-15, over 100 µM; with SK-MEL-28, > 100 µM (inactive). Also, the GI50 in the experiment on NCI-H522, with U-251, in the experiment with HCT-116, with K562, with LOX IMVI and in the experiment with A549 was > 100 µM (inactive) each time. Moreover, the GI50 in the experiment on SNB-19, in the experiment on ACHN and in the experiment with 786-0 was > 100 µM (inactive) each time.

With `O=C(c1ccccc1)N1CCc2c([nH]c3ccccc23)C1`, the GI50 with HT-29 is 72.4 µM (inactive); with RPMI-8226 it was 23.5 µM (inactive); in the experiment with SW-620 it was 37.5 µM (inactive); in the experiment with SR, 33.1 µM (inactive); in the experiment with HCT-15, 49.1 µM; in the experiment with SK-MEL-28, 24.8 µM (inactive). Also, the GI50 in the experiment on NCI-H522 is 22 µM (inactive); in the experiment with U-251, 16.4 µM (inactive); in the experiment on HCT-116 it was 38 µM (inactive); in the experiment on K562, 45.4 µM (inactive); in the experiment on LOX IMVI it was 88.1 µM (inactive); in the experiment on A549, 50.4 µM (inactive). In addition, the GI50 with SNB-19 is 59.7 µM (inactive); in the experiment with ACHN, 36.9 µM (inactive); with 786-0, 54.7 µM (inactive).

Consider `C=C(CN(C)C)C(=O)c1ccc(C(=O)C(=C)CN(C)C)cc1`, for which the GI50 in the experiment with HT-29 is > 100 µM (inactive); with RPMI-8226 it was > 100 µM (inactive); in the experiment on SW-620 it was > 100 µM (inactive); with SR, > 100 µM (inactive); with HCT-15 it was over 100 µM; with SK-MEL-28, > 100 µM (inactive). Besides, the GI50 with NCI-H522, with U-251, in the experiment with HCT-116, with K562, in the experiment with LOX IMVI and in the experiment with DU-145 was > 100 µM (inactive) in each case. Moreover, the GI50 in the experiment with A549 is 35.2 µM (inactive); with SNB-19 it was > 100 µM (inactive); with ACHN, > 100 µM (inactive); in the experiment on 786-0, > 100 µM (inactive).

Consider `Cn1cnc([N+](=O)[O-])c1SC1=NCCS1`, for which the GI50 was > 100 µM (inactive) in the experiment with HT-29; 36.7 µM (inactive) in the experiment on RPMI-8226; 47.6 µM (inactive) in the experiment with SW-620; 24.5 µM (inactive) with SR; 55 µM (inactive) in the experiment on SK-MEL-28; 16.7 µM (inactive) in the experiment on NCI-H522. The GI50 was > 100 µM (inactive) in the experiment on U-251; 50 µM (inactive) in the experiment on HCT-116; 28 µM (inactive) in the experiment on K562; 17.3 µM (inactive) in the experiment on LOX IMVI; > 100 µM (inactive) in the experiment on A549; > 100 µM (inactive) with SNB-19. The figures for the GI50 with ACHN and in the experiment on 786-0 were 91 µM (inactive) and > 100 µM (inactive), respectively.

As for `CC1(C)O[C@@H](CCl)C[C@@H](C#N)O1`, the GI50 with HT-29, in the experiment with RPMI-8226, in the experiment on SW-620, in the experiment with SR, with SK-MEL-28 and with NCI-H522 was > 100 µM (inactive) in each case. The GI50 in the experiment with U-251, in the experiment with HCT-116, with K562, with LOX IMVI, with A549 and in the experiment with SNB-19 was > 100 µM (inactive) throughout. The GI50 in the experiment on ACHN and in the experiment with 786-0 was > 100 µM (inactive) each time.

Turning to `BrC1=CC=C2NC=CC3=CC=NC1C32` (configuration not stated), the GI50 with HT-29 is 14.9 µM (inactive); with RPMI-8226 it was 11.4 µM (inactive); in the experiment on SW-620 it was 8.95 µM (inactive); with SR, 4.57 µM (inactive); with HCT-15 it was 18.9 µM; in the experiment with SK-MEL-28 it was 37.7 µM (inactive). The GI50 was 11.5 µM (inactive) in the experiment on NCI-H522; 7.67 µM (inactive) with U-251; 6.03 µM (inactive) with HCT-116; 12.2 µM (inactive) in the experiment with K562; 9.55 µM (inactive) with LOX IMVI; 8.51 µM (inactive) with SNB-19. For the same molecule, the figures for the GI50 in the experiment with ACHN and in the experiment with 786-0 were 7.26 µM (inactive) and 8.34 µM (inactive), respectively.

`COc1cc(/C=C2\NC(=O)C(Cc3cc(OC)c(OC)c(C)c3OC)N(C(C)=O)C2=O)c(OC)c(C)c1OC` (configuration not stated): the GI50 is > 100 µM (inactive) in the experiment with HT-29; 45.6 µM (inactive) with RPMI-8226; > 100 µM (inactive) with SW-620; > 100 µM (inactive) in the experiment on SR; > 100 µM (inactive) in the experiment on SK-MEL-28; 21.8 µM (inactive) with NCI-H522. In addition, the GI50 in the experiment with U-251 was > 100 µM (inactive); with HCT-116, > 100 µM (inactive); in the experiment with K562, 61.2 µM (inactive); with LOX IMVI, > 100 µM (inactive); in the experiment with A549 it was > 100 µM (inactive); with SNB-19, > 100 µM (inactive). Also, the GI50 with ACHN and in the experiment on 786-0 was > 100 µM (inactive) throughout.

For the molecule `O=C(O)CSc1nnc(Cc2ccccc2)[nH]1`, the GI50 in the experiment with HT-29 is > 100 µM (inactive); in the experiment on RPMI-8226, > 100 µM (inactive); with SW-620 it was > 100 µM (inactive); in the experiment on SR it was > 100 µM (inactive); in the experiment on HCT-15, over 100 µM; in the experiment with SK-MEL-28, > 100 µM (inactive). The GI50 in the experiment with NCI-H522, with U-251, with HCT-116, in the experiment with K562, in the experiment with LOX IMVI and in the experiment on A549 was > 100 µM (inactive) each time. Moreover, the GI50 in the experiment on SNB-19, in the experiment on ACHN and in the experiment with 786-0 was > 100 µM (inactive) in each case.

For `N#Cc1cn(-c2c3ccccc3nc3ccccc23)c(=O)[nH]c1=O`, the GI50 is 4.27 µM (inactive) in the experiment with HT-29; 14 µM (inactive) in the experiment on RPMI-8226; 5.01 µM (inactive) with SW-620; 3.31 µM (inactive) in the experiment on SR; 5.96 µM with HCT-15; 16.8 µM (inactive) in the experiment with SK-MEL-28. Besides, the GI50 in the experiment on NCI-H522 was 4.03 µM (inactive); with U-251, 18 µM (inactive); with HCT-116, 3.95 µM (inactive); with K562 it was 3.67 µM (inactive); in the experiment on LOX IMVI, 5.12 µM (inactive); with A549, 4.56 µM (inactive). For the same molecule, the GI50 in the experiment on SNB-19 was 22.2 µM (inactive); in the experiment with ACHN, 4.19 µM (inactive); in the experiment on 786-0, 3.29 µM (inactive).

As to `CC1(C)OC(=S)N(c2ccccc2)C12C=Cc1cc3ccccc3nc1S2` (configuration not stated), the GI50 with HT-29 is 40.4 µM (inactive); in the experiment on RPMI-8226, 33.7 µM (inactive); with SW-620, > 100 µM (inactive); in the experiment on SR, 22.4 µM (inactive); with HCT-15, over 100 µM; in the experiment with SK-MEL-28 it was > 100 µM (inactive). In addition, the GI50 with NCI-H522 is 32.6 µM (inactive); in the experiment with U-251, > 100 µM (inactive); in the experiment with HCT-116, > 100 µM (inactive); with K562 it was 33.4 µM (inactive); in the experiment with LOX IMVI, 59 µM (inactive); with A549 it was > 100 µM (inactive). The GI50 with SNB-19, in the experiment on ACHN and in the experiment on 786-0 was > 100 µM (inactive) in each case.

For the molecule `CC1=NN(C(=O)CC(=O)Nc2ccccc2)C(=O)C1/N=N/c1ccc(S(N)(=O)=O)cc1` (configuration not stated), the GI50 in the experiment on HT-29 was > 100 µM (inactive); in the experiment with RPMI-8226 it was 84.5 µM (inactive); in the experiment with SW-620, 59.4 µM (inactive); in the experiment on SR it was 56.9 µM (inactive); in the experiment on HCT-15, over 100 µM; in the experiment on SK-MEL-28 it was 61.4 µM (inactive). Further, the GI50 was 39 µM (inactive) with NCI-H522; 56.4 µM (inactive) in the experiment on U-251; 48 µM (inactive) in the experiment on HCT-116; 35.2 µM (inactive) in the experiment with K562; 75.5 µM (inactive) in the experiment on LOX IMVI; > 100 µM (inactive) with A549. The values for the GI50 with SNB-19, in the experiment with ACHN and in the experiment on 786-0 were 71.6 µM (inactive), > 100 µM (inactive) and 66.5 µM (inactive), respectively.

For `Cc1ccc(-c2nnc(-c3nn(-c4ccccc4)c4nc5ccccc5nc34)o2)cc1`, the GI50 with HT-29 was 41.7 µM (inactive); in the experiment on RPMI-8226, 8.38 µM (inactive); in the experiment on SW-620, 35.6 µM (inactive); in the experiment with SR it was 9.73 µM (inactive); with HCT-15, 21.4 µM; in the experiment on SK-MEL-28 it was 26.6 µM (inactive). Besides, the GI50 in the experiment with NCI-H522 was 17.9 µM (inactive); in the experiment with U-251, 11.8 µM (inactive); in the experiment on HCT-116 it was 12 µM (inactive); with K562, 11.4 µM (inactive); with LOX IMVI, 15.7 µM (inactive); in the experiment on A549, 13.3 µM (inactive). In addition, the figures for the GI50 with SNB-19, in the experiment with ACHN and with 786-0 were 21.5 µM (inactive), 14.4 µM (inactive) and 9.93 µM (inactive), respectively.
